IC50 data for 22 molecules are collected here from US10464927B2, “2,4-disubstituted pyrimidines as CDK inhibitors” (Shanghai Xunhe Pharmaceutical Technology Co. Ltd., priority 2016, dated 2019).

One test addresses CDK4 (Homo sapiens (Human), UniProt P11802). As to the kind of experiment: CDK4 protein kinase activity, Caliper mobility shift assay. Type of test: biochemical. To be noted: GST-CDK4(1-303 end), substrate Peptide FAM-P8, 28° C. for 3 h. How it is done: (§1) activity assay: The CDK4 protein kinase activity was measured using the Caliper mobility shift assay (see J. Biomol. Screen, 2009, PP31). The test compound was dissolved in DMSO and diluted with a kinase buffer solution (20 mM HEPES-pH 7.5, 0.01% Triton X-100, 10 mM MgCl2, 2 mM DTT) and 5 μL of compound at 5-fold final concentration of reaction dissolved in 10% DMSO was added in a 384-well plate. The compound-free control well was 5 μL of 10% DMSO, and the no-activity control well was 5 μL of kinase buffer. 10 μL of a 2.5-fold diluted CDK4 enzyme solution (GST-CDK4(1-303 end)) was added and incubated at room temperature for 10 min, and then 10 μL of the 2.5-fold diluted substrate solution Peptide FAM-P8 was added. The reaction was stopped by adding 25 μL of stop solution after incubation at 28° C. for 3 h, and the conversion rate data was read on a Caliper EZ Reader II (Caliper Life Sciences) and the conversion rate was converted to inhibition rate data according to above method. Among them, the inhibition rate %=(max−conversion)/(max−min)×100%.

Another test has as its target CDK6 (Homo sapiens (Human), UniProt Q00534). As to the kind of experiment: CDK6 protein kinase activity, Caliper mobility shift assay. The format is biochemical. The conditions noted are these: GST-CDK6(1-326 end), substrate Peptide FAM-P8, 28° C. for 3 h. How it is done:
as §1, with “Activity Assay:” for “activity assay:”, “CDK6” for “CDK4”, “(GST-CDK6(1-326” for “(GST-CDK4(1-303”

CDK4, sequence (P11802 whole entry): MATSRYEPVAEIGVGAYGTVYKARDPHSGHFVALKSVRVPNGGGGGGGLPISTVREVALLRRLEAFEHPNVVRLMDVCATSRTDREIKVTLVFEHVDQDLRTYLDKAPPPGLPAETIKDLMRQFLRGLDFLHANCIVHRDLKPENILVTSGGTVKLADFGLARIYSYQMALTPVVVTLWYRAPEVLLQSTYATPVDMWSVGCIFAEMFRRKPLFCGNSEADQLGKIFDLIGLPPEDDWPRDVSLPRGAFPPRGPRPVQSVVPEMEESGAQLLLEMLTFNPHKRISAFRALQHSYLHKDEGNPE
CDK4, sequence (P30281 whole entry partner): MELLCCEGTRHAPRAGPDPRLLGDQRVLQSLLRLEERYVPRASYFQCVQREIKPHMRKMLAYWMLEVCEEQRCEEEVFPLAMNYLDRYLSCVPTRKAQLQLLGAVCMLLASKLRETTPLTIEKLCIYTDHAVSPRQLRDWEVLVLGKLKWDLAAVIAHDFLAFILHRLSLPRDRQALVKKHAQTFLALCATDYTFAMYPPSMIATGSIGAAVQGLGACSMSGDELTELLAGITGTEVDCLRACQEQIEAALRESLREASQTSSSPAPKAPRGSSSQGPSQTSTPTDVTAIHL
CDK6, sequence (Q00534 whole entry): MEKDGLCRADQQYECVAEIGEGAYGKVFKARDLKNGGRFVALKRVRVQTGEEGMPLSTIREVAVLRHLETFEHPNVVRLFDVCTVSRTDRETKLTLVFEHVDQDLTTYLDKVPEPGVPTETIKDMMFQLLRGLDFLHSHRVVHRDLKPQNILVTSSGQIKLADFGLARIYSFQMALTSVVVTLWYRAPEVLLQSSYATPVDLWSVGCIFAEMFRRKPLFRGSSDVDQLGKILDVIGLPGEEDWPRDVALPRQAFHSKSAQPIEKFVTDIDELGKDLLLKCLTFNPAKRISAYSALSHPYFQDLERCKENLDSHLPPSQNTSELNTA
CDK6, sequence (P30281 whole entry partner): as the sequence (P30281 whole entry partner) above

On to `Cc1c(C(F)(F)F)c2cc(-c3ccnc(Nc4ccc(CN5CCN(C(C)C)CC5)cn4)n3)ccc2n1C` [Compound I-16, N-(5-(4-isopropylpiperazin-1-methyl)-pyridin-2-yl)-4-(1,2-dimethyl-3-trifluoromethyl-1H-indol-5-yl)pyrimidin-2-amine], for which the IC50 on CDK4 and on CDK6 was no more than 0.02 µM throughout.

As to `CC(=O)c1nc(C2CC2)n2cc(-c3nc(Nc4ccc(N5CCNCC5)cn4)ncc3F)cc(F)c12` [Compound I-32, N-(5-(piperazin-1-yl)-pyridin-2-yl)-5-fluoro-4-(1-acetyl-3-cyclopropyl-8-fluoro-imidazolo[1,5-a]pyridin-6-yl)pyrimidin-2-amine], the IC50 was no more than 0.02 µM on CDK4 and 0.02 to 0.1 µM at CDK6.

`CCC(CC)n1c(C(C)=O)cc2cc(-c3nc(Nc4ccc(CN5CCN(C)CC5)cn4)ncc3Cl)ccc21` [Compound I-15, N-(5-(4-methylpiperazine-1-methyl)-pyridin-2-yl)-5-chloro-4-(1-(3-pentyl)-2-acetyl-1H-indol-5-yl)pyrimidin-2-amine]: the IC50 is 0.1 to 0.5 µM at CDK4 and 0.02 to 0.1 µM on CDK6.

In the case of `CC(C)n1c(C(=O)N(C)C)c(F)c2c(-c3nc(Nc4ccc(N5CCNCC5)cn4)ncc3F)ncnc21` [Compound I-10, N-(5-(piperazin-1-yl)-pyridin-2-yl)-5-fluoro-4-(5-fluoro-6-formic acid diformamido-7-isopropyl-7H-pyrrolo[2,3-d]pyrimidin-4-yl)pyrimidin-2-amine], the IC50 was no more than 0.02 µM at CDK4 and 0.02 to 0.1 µM at CDK6.

As for `CCN1CCN(Cc2ccc(Nc3ncc(F)c(-c4ccc5c(c4)cc(C(=O)N(C)C)n5C4CCCC4)n3)nc2)CC1` [Compound I-22, N-(5-(4-ethylpiperazine-1-methyl)-pyridin-2-yl)-5-fluoro-4-(1-cyclopentyl-2-formic acid diformamido-1H-indol-5-yl)pyrimidin-2-amine], the IC50 on CDK4 and at CDK6 was no more than 0.02 µM in each case.

Consider `CN(C)C(=O)c1cc2cc(-c3nc(Nc4ccc(N5CCNCC5)cn4)ncc3F)ccc2n1C1CCCC1` [Compound I-14, N-(5-(piperazin-1-yl)-pyridin-2-yl)-5-fluoro-4-(1-cyclopentyl-2-formic acid diformamido-1H-indol-5-yl)pyrimidin-2-amine], for which the half-maximal inhibitory concentration (IC50) at CDK4 and on CDK6 was no more than 0.02 µM in each case.

In the case of `CC(C)c1nnc2ccc(-c3nc(Nc4ccc(N5CCNCC5)cn4)ncc3F)cn12` [Compound I-7, N-(5-(piperazin-1-yl)-pyridin-2-yl)-5-fluoro-4-(3-isopropyl-[1,2,4]triazolo[4,3-a]pyridine-6-yl)pyrimidin-2-amine], the IC50 at CDK4 and on CDK6 was no more than 0.02 µM each time.

Turning to `CC(=O)c1c2ccc(-c3nc(Nc4ccc(N5CCNCC5)cn4)ncc3F)nc2nn1C1CC1` [Compound I-29, N-(5-(piperazin-1-yl)-pyridin-2-yl)-5-fluoro-4-(2-cyclopropyl-3-acetyl-2H-7-azaindazol-6-yl)pyrimidin-2-amine], the IC50 at CDK4 and at CDK6 was no more than 0.02 µM each time.

For `Fc1cnc(Nc2ccc(CN3CCN(C4CCCCC4)CC3)cn2)nc1-c1ccc2c(c1)c(C1CCC1)cn2C1CCCCC1` [Compound I-19, N-(5-(4-cyclohexylpiperazin-1-methyl)-pyridin-2-yl)-5-fluoro-4-(1-cyclohexyl-3-cyclobutyl-1H-indol-5-yl)pyrimidin-2-amine], the IC50 is no more than 0.02 µM at CDK4 and greater than 0.5 µM at CDK6.

For `CCN1CCN(Cc2ccc(Nc3ncc(F)c(-c4ccc5c(cc(C(=O)N(C)C)n5C(C)C)n4)n3)nc2)CC1` [Compound I-26, N-(5-(4-ethylpiperazine-1-methyl)-pyridin-2-yl)-5-fluoro-4-(1-isopropyl-2-formic acid diformamido-1H-4-azaindol-5-yl)pyrimidin-2-amine], the IC50 was no more than 0.02 µM at CDK4 and 0.02 to 0.1 µM on CDK6.

As to `CCN1CCN(Cc2ccc(Nc3ncc(F)c(-c4ccc5c(n4)c(C(F)(F)F)nn5C4CCCC4)n3)nc2)CC1` [Compound I-46, N-(5-(4-ethylpiperazine-1-methyl)-pyridin-2-yl)-5-fluoro-4-(1-cyclopentyl-3-trifluoromethyl-4-aza-1H-indazol-5-yl)pyrimidin-2-amine], the IC50 at CDK4 and on CDK6 was 0.02 to 0.1 µM throughout.

In the case of `CCN1CCN(Cc2ccc(Nc3ncc(F)c(-c4ncc5nc(C(=O)N(C)C)n(C)c5n4)n3)nc2)CC1` [Compound I-40, N-(5-(4-ethylpiperazin-1-methyl)-pyridin-2-yl)-5-fluoro-4-(9-methyl-8-formic acid diformamido-9H-purin-2-yl)pyrimidin-2-amine], the IC50 on CDK4 and at CDK6 was no more than 0.02 µM in each case.

Consider `CCC(CC)n1c(C(C)C)nc2cnc(-c3nc(Nc4ccc(CN5CCN(C)CC5)cn4)ncc3F)nc21` [Compound I-39, N-(5-(4-methylpiperazin-1-methyl)-pyridin-2-yl)-5-fluoro-4-(9-(3-pentyl)-8-isopropyl-9H-purin-2-yl)pyrimidin-2-amine], for which the IC50 on CDK4 and at CDK6 was no more than 0.02 µM in each case.

For `CCN1CCN(Cc2ccc(Nc3ncc(F)c(-c4ccc5c(c4)c(C(C)=O)nn5C(C)C)n3)nc2)CC1` [Compound I-44, N-(5-(4-ethylpiperazine-1-methyl)-pyridin-2-yl)-5-fluoro-4-(1-isopropyl-3-acetyl-1H-indazol-5-yl)pyrimidin-2-amine], the IC50 is no more than 0.02 µM at CDK4 and greater than 0.5 µM on CDK6.

Turning to `Cn1nc2nc(-c3nc(Nc4ccc(N5CCNCC5)cn4)ncc3F)ccc2c1C1CCCC1` [Compound I-12, N-(5-(piperazin-1-yl)-pyridin-2-yl)-5-fluoro-4-(2-methyl-3-cyclopentyl-2H-7-azaindazol-6-yl)pyrimidin-2-amine], the IC50 on CDK4 and at CDK6 was no more than 0.02 µM in each case.

In the case of `CC(C)n1c(C2CCCC2)cc2cc(-c3nc(Nc4ccc(N5CCN(C6CCC6)CC5)cn4)ncc3F)ccc21` [Compound I-21, N-(5-(4-cyclobutylpiperazin-1-yl)-pyridin-2-yl)-5-fluoro-4-(1-isopropyl-2-cyclopentyl-1H-indol-5-yl)pyrimidin-2-amine], the figures for the half-maximal inhibitory concentration (IC50) at CDK4 and on CDK6 were no more than 0.02 µM and 0.02 to 0.1 µM, respectively.

With `Cc1nc2cnc(-c3nc(Nc4ccc(N5CCN(C)CC5)cn4)ncc3F)nc2n1C(C)C` [Compound I-47, N-(5-(4-methylpiperazin-1-yl)-pyridin-2-yl)-5-fluoro-4-(9-isopropyl-8-methyl-9H-purin-2-yl)pyrimidin-2-amine], the IC50 is no more than 0.02 µM on CDK4 and 0.02 to 0.1 µM at CDK6.

Turning to `CC(=O)c1nc2cnc(-c3nc(Nc4ccc(CN5CCN(C)CC5)cn4)ncc3F)nc2n1C(C)C` [Compound I-38, N-(5-(4-methylpiperazine-1-methyl)-pyridin-2-yl)-5-fluoro-4-(9-isopropyl-8-acetyl-9H-purin-2-yl)pyrimidin-2-amine], the IC50 at CDK4 and on CDK6 was no more than 0.02 µM each time.

Take `CN(C)C(=O)c1nn(C2CCCC2)c2ccc(-c3nc(Nc4ccc(N5CCNCC5)cn4)ncc3F)cc12` [Compound I-43, N-(5-(piperazin-1-yl)-pyridin-2-yl)-5-fluoro-4-(1-cyclopentyl-3-formic acid diformamido-1H-indazol-5-yl)pyrimidin-2-amine]: the IC50 on CDK4 and at CDK6 was no more than 0.02 µM throughout.

Consider `CCN1CCN(Cc2ccc(Nc3ncc(F)c(-c4ccc5ncc(C#N)n5c4)n3)nc2)CC1` [Compound I-34, N-(5-(4-ethylpiperazine-1-methyl)-pyridin-2-yl)-5-fluoro-4-(3-cyano-imidazo[1,2-a]pyridin-6-yl)pyrimidin-2-amine], for which the IC50 at CDK4 and on CDK6 was no more than 0.02 µM throughout.

Take `CC(C)c1c(C#N)n(C2CC2)c2ccc(-c3nc(Nc4ccc(CN5CCN(C6CC6)CC5)cn4)ncc3F)cc12` [Compound I-17, N-(5-(4-cyclopropylpiperazine-1-methyl)-pyridin-2-yl)-5-fluoro-4-(1-cyclopropyl-2-cyano-3-isopropyl-1H-indol-5-yl)pyrimidin-2-amine]: the IC50 at CDK6 was 0.02 to 0.1 µM.

For the molecule `CC(C)c1c2ccc(-c3nc(Nc4ccc(N5CCNCC5)cn4)ncc3F)c(Cl)c2nn1C` [Compound I-30, N-(5-(piperazin-1-yl)-pyridin-2-yl)-5-fluoro-4-(2-methyl-3-isopropyl-2H-7-chloro-indazol-6-yl)pyrimidin-2-amine], the half-maximal inhibitory concentration (IC50) at CDK6 lay in the range of 0.02 to 0.1 µM.
